According to patent US5206384A, “Actinonin derivatives and pharmaceutically acceptable salts thereof” (Zaidan Hojin Biseibutsu Kagaku Kai, priority 1990, dated 1993):

What was measured:
[1] = target: angiotensin-conversion enzyme (ACE) (Homo sapiens, UniProt P12821); test: ACE-inhibitory activity; assay type: biochemical; details: for IC50: method of Analytical Biochemistry, 84, 361 (1978)
Procedure: Thus, we have tested the enzyme-inhibitory activities of some typical compounds of this invention against angiotensin-conversion enzyme (ACE) which participates in the control of blood-pressure in mammalian animals by converting angiotensin I, a peptide-type hormone in brain, into angiotensin II. The determination of ACE-inhibitory activity was carried out in accordance with the method described in "Analytical Biochemistry", 84, 361 (1978) and the activity was estimated in term of the concentration (mole concentration, M) of each compound tested at which the activity of the enzyme can be inhibited by 50% (IC50).

enkephalinase = enkephalinase (Homo sapiens, UniProt P08473); test: Enkephalinase-inhibitory activity; assay type: biochemical; details: for IC50: concentration which inhibits enzymatic activity of enkephalinase by 50%
Procedure: IC50 concentrations (M concentration) of some typical compounds of this invention which can inhibit enzymatic activity of enkephalinase by 50% were measured.

peptidases = details: Journal of Antibiotics, 38, 1629-1630 (1985); U.S. Pat. No. 4,663,342; cited from earlier work

angiotensin-conversion enzyme (ACE), sequence (P12821 30-1306, species assumed): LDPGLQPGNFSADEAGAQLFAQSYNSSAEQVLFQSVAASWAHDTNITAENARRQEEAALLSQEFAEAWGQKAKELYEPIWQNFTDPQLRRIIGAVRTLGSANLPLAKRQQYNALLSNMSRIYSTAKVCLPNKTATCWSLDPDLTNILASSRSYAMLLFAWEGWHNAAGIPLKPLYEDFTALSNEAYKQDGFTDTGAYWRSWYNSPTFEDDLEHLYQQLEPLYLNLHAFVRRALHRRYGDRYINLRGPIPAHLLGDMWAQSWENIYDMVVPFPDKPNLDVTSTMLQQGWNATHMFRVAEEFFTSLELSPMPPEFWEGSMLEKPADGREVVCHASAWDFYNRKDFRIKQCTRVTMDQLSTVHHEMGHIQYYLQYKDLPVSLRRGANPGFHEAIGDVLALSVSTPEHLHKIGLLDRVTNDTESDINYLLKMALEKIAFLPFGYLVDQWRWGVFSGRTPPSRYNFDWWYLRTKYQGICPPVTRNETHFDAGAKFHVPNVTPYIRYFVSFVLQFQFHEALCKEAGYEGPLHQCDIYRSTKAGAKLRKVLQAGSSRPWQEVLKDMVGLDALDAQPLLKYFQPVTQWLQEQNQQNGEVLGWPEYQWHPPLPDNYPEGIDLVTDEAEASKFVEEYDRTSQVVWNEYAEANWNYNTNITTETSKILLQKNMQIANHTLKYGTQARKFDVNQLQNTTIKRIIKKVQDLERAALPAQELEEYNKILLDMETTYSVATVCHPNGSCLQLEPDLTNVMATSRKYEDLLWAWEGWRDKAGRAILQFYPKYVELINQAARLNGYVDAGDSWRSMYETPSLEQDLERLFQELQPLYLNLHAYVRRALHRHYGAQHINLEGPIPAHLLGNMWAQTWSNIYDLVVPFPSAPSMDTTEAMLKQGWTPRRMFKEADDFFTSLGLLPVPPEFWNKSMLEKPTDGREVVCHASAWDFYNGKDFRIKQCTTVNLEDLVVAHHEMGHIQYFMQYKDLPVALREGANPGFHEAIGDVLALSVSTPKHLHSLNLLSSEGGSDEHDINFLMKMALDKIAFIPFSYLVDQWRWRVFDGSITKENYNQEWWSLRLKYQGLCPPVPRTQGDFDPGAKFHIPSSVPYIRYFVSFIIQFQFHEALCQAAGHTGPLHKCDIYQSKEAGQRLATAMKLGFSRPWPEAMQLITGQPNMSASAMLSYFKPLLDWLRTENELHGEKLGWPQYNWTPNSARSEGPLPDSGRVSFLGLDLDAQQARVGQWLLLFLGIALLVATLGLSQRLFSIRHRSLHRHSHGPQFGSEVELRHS
enkephalinase, sequence (P08473 whole entry, species assumed): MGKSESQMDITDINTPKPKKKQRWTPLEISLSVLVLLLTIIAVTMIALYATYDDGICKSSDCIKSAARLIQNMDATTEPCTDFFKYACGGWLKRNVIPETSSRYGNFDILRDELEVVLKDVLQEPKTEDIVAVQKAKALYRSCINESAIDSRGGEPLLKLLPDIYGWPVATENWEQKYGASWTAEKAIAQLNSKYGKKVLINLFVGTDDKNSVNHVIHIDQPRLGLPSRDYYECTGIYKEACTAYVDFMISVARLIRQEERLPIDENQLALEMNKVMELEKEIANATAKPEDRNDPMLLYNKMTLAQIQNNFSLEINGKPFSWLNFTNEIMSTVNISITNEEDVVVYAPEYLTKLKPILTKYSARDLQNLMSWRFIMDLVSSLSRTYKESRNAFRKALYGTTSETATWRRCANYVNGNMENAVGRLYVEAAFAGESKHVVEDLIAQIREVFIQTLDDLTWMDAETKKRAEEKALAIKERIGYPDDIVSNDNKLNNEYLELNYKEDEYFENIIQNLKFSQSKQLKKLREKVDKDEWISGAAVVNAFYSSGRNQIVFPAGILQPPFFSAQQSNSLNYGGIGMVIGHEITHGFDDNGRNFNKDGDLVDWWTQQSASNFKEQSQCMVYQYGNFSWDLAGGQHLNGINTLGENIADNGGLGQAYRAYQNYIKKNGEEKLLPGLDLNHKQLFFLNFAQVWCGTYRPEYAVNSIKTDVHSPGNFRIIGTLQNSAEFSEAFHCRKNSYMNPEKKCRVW

IC50 [1] [µM] | IC50 (enkephalinase) [µM] | enkephalinase-inhibitory activity, times stronger than that of actinonin (enkephalinase; relative to actinonin as reference, from Table 2) | inhibitory activities against angiotensin-converting enzymes (in words) [1] | SMILES | inhibits a wide variety of peptidases (in words) (peptidases)
92 | 14 | – | – | CCCCC[C@H](CC(=O)NOS(=O)(=O)O)C(=O)NC(C(=O)N1CCC[C@H]1COS(=O)(=O)O)C(C)C (stereo in doubt) [Compound of formula (Ia), (2R)-2-(Sulfoxyaminocarbonylmethyl)heptanoyl-L-valyl-(2S)-2-(sulfoxymethyl)pyrrolidine] | –
28 | 0.31 | more than 10 times | – | CCCCC[C@H](CC(=O)NO)C(=O)NC(C(=O)N1CCC[C@H]1C(=O)O)C(C)C (stereo in doubt) [Compound of formula (Ib), (2R)-2-(Hydroxyaminocarbonylmethyl)heptanoyl-L-valyl-L-proline] | –
430 | 4.1 | – | – | CCCCC[C@H](CC(=O)NO)C(=O)NC(C(=O)N1CCC[C@H]1COS(=O)(=O)O)C(C)C (stereo in doubt) [Compound of formula (Ig), (2R)-2-(Hydroxyaminocarbonylmethyl)heptanoyl-L-valyl-(2S)-2-(sulfoxymethyl)pyrrolidine] | –
590 | 5.6 | – | low levels of inhibitory activity | CCCCC[C@H](CC(=O)NO)C(=O)N[C@H](C(=O)N1CCC[C@H]1CO)C(C)C [Actinonin, actinonin] | inhibits a wide variety of peptidases
0.53 | 1.2 | – | – | CCCCC[C@H](CC(=O)NO)C(=O)N[C@H](C(=O)N1CCC[C@H]1C(=O)NO)C(C)C [Compound of formula (Id), (2R)-2-(Hydroxyaminocarbonylmethyl)heptanoyl-L-valyl-L-proline.hydroxamide] | –
